In US8124655B2, “Use of LR-90 and LR-102 to overcome insulin resistance” (City of Hope, priority 2007, dated 2012):

Key:
[1] = system: Zucker diabetic fatty (ZDF) rat; assay: Kidney lipid peroxidation (malondialdehyde, TBARS), Example 1; assay type: in vivo; conditions: ZDF animals
Experimental: To assess lipid peroxidation in renal cortical homogenates, malondialdehyde, an end-product of lipid peroxidation, was measured as thiobarbituric acid reactive substances by calorimetric reaction as described. Reaction was carried in the presence of EDTA and antioxidant butylated hydroxytoluene, and the absorbance was measured at 532 nm (UV-1601; Shimadzu Scientific Instruments, Columbia, Md., USA). Hydrolysed 1,1,3,3-tetramethoxypropane was used as standard [prepared by incubating 10 mmol/l tetramethoxypropane with 1% (vol./vol.) H2SO4 for 2 h at room temperature]. Results are expressed as nanomole malondialdehyde per milligram protein.

[2] = system: CML-AGE, AGER; assay: Plasma and renal AGE and AGER; assay type: in vivo, rat; conditions: ZDF rats
Experimental: All animal studies were carried out in compliance with policies outlined in The Guide for the Care and Handling of Laboratory Animals (NIH Publication No. 85-23) that have been approved by the City of Hope Animal Care Committee. Male ZDF (fa/fa) and male Zucker lean (+/+; ZL) rats were obtained at the age of 5 weeks from Charles River Laboratories (Wilmington, Mass., USA). Animals were maintained with free access to Purina 5008 rat chow (Purina Mills, St Louis, Mo., USA) and tap water. All animals were individually housed in a controlled room with a 12 h dark-light cycle. At the age of 13 weeks, the animals were divided into the following groups: (1) ZL rats (n=6); (2) ZDF rats without treatment (n=6); and (3) ZDF rats treated with LR-90 at 50 mg/l in their drinking water (ZDF90, n=6). The dose of LR-90 was chosen after previous experiments with type 1 diabetic nephropathy. Food, water intake, body weight and blood glucose levels were monitored periodically. Systolic blood pressure was measured by tail-cuff plethysmography (CODA2 Blood Pressure System; Kent Scientific, Torrington, Conn., USA). […] Plasma glucose, lipids and Nε-(carboxymethyl)lysine-AGE Plasma glucose was measured using a glucose analyzer (2300 STAT; YSI, Yellowsprings, Ohio, USA). Total plasma triacylglycerol and cholesterol concentrations were quantified using the Vitros 250 Chemistry System (Johnson & Johnson, Rochester, N.Y., USA). Nε-(Carboxymethyl)lysine (CML)-AGE was liberated from plasma proteins by acid hydrolysis and then measured by ion-pair reversed-phase liquid chromatography/tandem mass spectrometry as described previously. […]
Renal cortical tissues were homogenised in PBS buffer with 1% (vol./vol.) Nonidet P-40, 0.5% (wt/vol.) sodium deoxycholate, 0.1% (wt/vol.) SDS and protease inhibitor mixture (Roche, Indianapolis, Ind., USA). […] Protein concentrations were measured using the Bio-Rad DC Assay kit. […] Immunoreactive proteins were detected by enhanced chemiluminescence (Western Lightning Chemiluminescence Reagent; Perkin-Elmer, Waltham, Mass., USA) using horseradish peroxidase-labelled secondary antibodies. […]

[3] = system: Cybb, the gene encoding for the gp91phox subunit of NADPH; assay: Kidney expression of Cybb (data not shown); assay type: in vivo, rat; conditions: ZDF rats
[4] = system: Zucker diabetic fatty (ZDF) rat; assay: Renal function: urinary albumin and total protein excretion, kidney weights (Example 1); assay type: in vivo
Experimental: All animal studies were carried out in compliance with policies outlined in The Guide for the Care and Handling of Laboratory Animals (NIH Publication No. 85-23) that have been approved by the City of Hope Animal Care Committee. Male ZDF (fa/fa) and male Zucker lean (+/+; ZL) rats were obtained at the age of 5 weeks from Charles River Laboratories (Wilmington, Mass., USA). Animals were maintained with free access to Purina 5008 rat chow (Purina Mills, St Louis, Mo., USA) and tap water. All animals were individually housed in a controlled room with a 12 h dark-light cycle. At the age of 13 weeks, the animals were divided into the following groups: (1) ZL rats (n=6); (2) ZDF rats without treatment (n=6); and (3) ZDF rats treated with LR-90 at 50 mg/l in their drinking water (ZDF90, n=6). The dose of LR-90 was chosen after previous experiments with type 1 diabetic nephropathy. Food, water intake, body weight and blood glucose levels were monitored periodically. Systolic blood pressure was measured by tail-cuff plethysmography (CODA2 Blood Pressure System; Kent Scientific, Torrington, Conn., USA). Animals were killed at the age of 40 weeks by over-anaesthetisation with isoflurane and cardiac puncture. Blood samples were collected from each animal and transferred accordingly into heparinised vacutainer tubes; they were later centrifuged (1,500×g for 10 min at 4° C.) for plasma isolation. The kidneys were removed immediately, rinsed in PBS and weighed, after which specimens were snap-frozen in liquid nitrogen or fixed in 10% (vol./vol.) neutral buffered formalin for further biochemical and histological analyses. Plasma glucose, lipids and Nε-(carboxymethyl)lysine-AGE Plasma glucose was measured using a glucose analyzer (2300 STAT; YSI, Yellowsprings, Ohio, USA). Total plasma triacylglycerol and cholesterol concentrations were quantified using the Vitros 250 Chemistry System (Johnson & Johnson, Rochester, N.Y., USA). Nε-(Carboxymethyl)lysine (CML)-AGE was liberated from plasma proteins by acid hydrolysis and then measured by ion-pair reversed-phase liquid chromatography/tandem mass spectrometry as described previously.
Renal function was assessed by measuring urinary albumin and total protein excretion. Prior to killing, rats were housed in metabolism cages for 24 h urine collection. Urinary albumin was quantified using the Nephrat kit according to manufacturer's instructions. Total urinary protein was measured using a kit (DC Assay; Bio-Rad Laboratories, Hercules, Calif., USA).

[5] = ZDF rats, LR-90 50 mg/l in drinking water, at 40 weeks of age, mean ± SEM

## CC(C)(Oc1ccc(NC(=O)Nc2ccc(Cc3ccc(NC(=O)Nc4ccc(OC(C)(C)C(=O)O)cc4)c(Cl)c3)cc2Cl)cc1)C(=O)O [LR-90, methylene bis[4,4′-(2-chlorophenylureidophenoxyisobutyric acid)]]
[1]
  reduction of kidney lipid peroxidation: ~40%
[2]; RT-PCR and immunostaining
  Ager mRNA and protein in kidney tissues: markedly abrogated
[2]; immunohistochemistry
  AGE accumulation in kidney tissues: markedly abrogated
[2]; p<0.01, LC/tandem MS
  attenuation of circulating plasma CML-AGE concentration: 22%
[3]
  increased kidney expression of Cybb: attenuated
[4]; [5]
  Mean Kidney Weights: 4.23 ± 0.27 g
  Relative Kidney Weights: 12.23 ± 0.78 g/kg
  Total Urinary Protein: 176.4 ± 43.3 mg/24 h
  Urinary Albumin: 25.8 ± 4.8 mg/24 h
  Urine Volume: 137 ± 24 mL/day
[4]; vs untreated ZDF rats, p<0.01
  prevention of increase in total urinary protein: 67%
[4]; vs untreated ZDF rats, p<0.05
  prevention of increase in urinary albumin: 42%
